Series [1] has as its target PLK2 (Homo sapiens (Human), UniProt Q9NYY3). The series can be described thus: PLK2 kinase activity in vitro, 33P isotope-labeled kinase activity test. Type of series: biochemical. The following applies: 33P-ATP 30 μM, PLK2 15 nM. Here is the method:
(§1) The ^33P isotope-labeled kinase activity test (Reaction Biology Corp) was used to determine the IC50 value to evaluate the inhibitory ability of the test compound to the human PLK family protein kinase PLK2/PLK3/PLK4.
(§2) Buffer conditions: 20 mM HEPES (pH 7.5), 10 mM MgC2, 1 mM EGTA, 0.01% Brij35, 0.02 mg/ml BSA, 0.1 mM Na3VO4, 2 mM DTT, 1% DMSO.
(§3) Test steps: At room temperature, the compounds to be tested were dissolved in DMSO to prepare a 10 mM solution for use. The substrate Casein was dissolved in the freshly prepared buffer (with a final concentration of 20 μM), and the tested PLK2/PLK3/PLK4 kinases (with a final concentration of 15/10/150 nM, respectively) were added thereto and mixed well. The acoustic wave pipetting system Echo 550 was used to add the mother solution of the test compound dissolved in DMSO to the above mixed reaction mixture according to the set final concentration gradient (the highest final concentration was 1 μM, 3-fold dilution, 10 gradients). After incubation at room temperature for 20 minutes, ^33P-ATP (with a final concentration of 30/50/10 μM, respectively) was added, then after incubation at room temperature for 120 minutes, the reaction mixture was spotted on P81 ion exchange filter paper (Whatman #3698-915).

For series [2], the target named is PLK3 (Homo sapiens (Human), UniProt Q9H4B4). Description: PLK3 kinase activity in vitro, 33P isotope-labeled kinase activity test. Type of series: biochemical. Particulars: 33P-ATP 50 μM, PLK3 10 nM. The method, then:
as §1, §2, §3

For series [3], the target named is PLK4 (Homo sapiens (Human), UniProt O00444). Description: PLK4 kinase activity in vitro, 33P isotope-labeled kinase activity test. The following applies: 33P-ATP 10 μM, PLK4 150 nM. The class given is biochemical. The method, then: as §1, §2, §3
Sequence of PLK4 (O00444 whole entry): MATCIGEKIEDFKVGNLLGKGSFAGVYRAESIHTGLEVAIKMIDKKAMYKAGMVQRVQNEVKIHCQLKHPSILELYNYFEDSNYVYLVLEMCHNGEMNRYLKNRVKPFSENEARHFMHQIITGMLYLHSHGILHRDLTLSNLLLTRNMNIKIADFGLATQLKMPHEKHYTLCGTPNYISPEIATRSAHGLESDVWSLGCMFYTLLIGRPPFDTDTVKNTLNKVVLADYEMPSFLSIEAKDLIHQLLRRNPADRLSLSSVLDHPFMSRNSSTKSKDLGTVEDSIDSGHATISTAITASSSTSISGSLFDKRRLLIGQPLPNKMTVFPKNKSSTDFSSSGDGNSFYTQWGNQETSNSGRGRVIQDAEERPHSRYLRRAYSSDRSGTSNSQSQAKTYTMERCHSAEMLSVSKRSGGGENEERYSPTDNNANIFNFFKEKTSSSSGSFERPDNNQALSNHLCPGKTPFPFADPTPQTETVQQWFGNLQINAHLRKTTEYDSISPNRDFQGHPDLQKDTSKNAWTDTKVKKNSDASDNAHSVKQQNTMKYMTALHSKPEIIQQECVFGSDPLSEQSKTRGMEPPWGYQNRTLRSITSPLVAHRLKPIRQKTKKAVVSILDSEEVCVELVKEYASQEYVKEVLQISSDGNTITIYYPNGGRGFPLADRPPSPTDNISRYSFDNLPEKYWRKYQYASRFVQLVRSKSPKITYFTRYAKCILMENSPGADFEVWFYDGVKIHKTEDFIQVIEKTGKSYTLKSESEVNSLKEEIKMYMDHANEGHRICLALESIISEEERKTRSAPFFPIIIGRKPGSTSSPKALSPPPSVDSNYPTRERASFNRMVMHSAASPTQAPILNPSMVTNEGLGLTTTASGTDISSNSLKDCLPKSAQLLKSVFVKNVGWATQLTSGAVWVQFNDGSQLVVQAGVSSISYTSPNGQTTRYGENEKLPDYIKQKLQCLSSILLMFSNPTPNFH
The subject of series [4] is HCT116 cells. The series can be described thus: HCT116 cytological activity in vitro (3D CellTiter-Glo proliferation). Type of series: cell-based, human. Particulars: Homo sapiens, HCT-116, 120 h, 5 days culture, ultra-low adsorption plates. Here is the method:
McCoy's 5A medium, penicillin/streptomycin antibiotics was purchased from Vicente, and fetal bovine serum was purchased from Biosera. 3D CellTiter-Glo (cell viability chemiluminescence assay reagent) reagent was purchased from Promega. HCT116 cell line was purchased from Nanjing Cobioer Biosciences Co., Ltd. Envision multimode microplate reader (PerkinElmer).
HCT116 cells were seeded in ultra-low adsorption 96-well U-plates, 80 μL of cell suspension per well, which contained 1000 HCT116 cells. Cell plates were cultured overnight in a carbon dioxide incubator.
The compound to be tested was 5-fold diluted to the 9th concentration with a pipette, that is, diluted from 2 mM to 5.12 nM, and a double-well experiment was set up. 78 μL of medium was added to the intermediate plate, and then 2 μL of each well of the gradient diluted compound was transferred to the intermediate plate according to the corresponding position, 20 μL of each well was transferred to the cell plate after mixing well. Compound concentrations transferred to cell plates ranged from 10 μM to 0.0256 nM. Cell plates were cultured in a carbon dioxide incubator for 5 days. Another cell plate was prepared, and the signal value was read as the maximum value (Max value in the following equation) on the day of drug addition to participate in data analysis.
Every 100 μL of cell viability chemiluminescent detection reagent was added to the cell plate, and incubated at room temperature for 10 minutes to stabilize the luminescent signal. A multimode microplate reader was used to read.
The equation (Sample−Min)/(Max−Min)*100% was used to convert the original data into an inhibition rate, and the value of IC50 can be obtained by curve fitting with four parameters (“log(inhibitor) vs. response in GraphPad Prism—Variable slope” mode). Table 3 provides the inhibitory activity of the compounds of the present disclosure against the proliferation of HCT116 cells.

A short description of series [5]: Pharmacokinetic study in CD-1 male mice by oral administration and intravenous injection. Type of series: in vivo. Particulars: mouse, plasma; for AUC(0-t): read-out: Area under the plasma concentration-time curve AUC0-24 h. An excerpt:
The purpose of this experiment is to study the pharmacokinetics of the test compound in the plasma of CD-1 male mice after intravenous injection and oral administration.
Intravenous injection group: an appropriate amount of the test compound was weighed and dissolved in 20% SBE-b-CD aqueous solution and the pH was adjusted to 4 to 5 with 6 M hydrochloric acid, and the mixture was vortexed for 2, minutes to obtain a clear solution, and then pH was adjusted around 7 with 5 N sodium hydroxide, and the mixture was vortexed for 1 minute to prepare a 1.5 mg/mL clear solution, which was filtered through a 0.22 μm microporous membrane for later use. CD-1 male mice from 6 to 10 weeks old were selected and given a solution of the test compound intravenously. Samples were collected at 0.083, 0.25, 0.5, 1, 2, 4, 6, 8, and 24 hours.
Oral administration group: an appropriate amount of the test compound was weighed and dissolved in 20% SBE-b-CD aqueous solution, and the pH was adjusted to 3 to 4 with 6 M hydrochloric acid, and the mixture was vortexed for 2, minutes to obtain a clear solution, and then pH was adjusted around 7 with 5 N sodium hydroxide, and mixture was vortexed for 1 minute to prepare a 2.0 mg/mL clear solution for later use. CD-1 male mice between 6 and 10 weeks of age were selected and given the test compounds orally. Samples were collected at 0.25, 0.5, 1, 2, 4, 6, 8, 10, and 24 hours.
Approximately 50 μL of whole blood was collected through the jugular vein at each time point for plasma preparation for concentration determination by high performance liquid chromatography-tandem mass spectrometry (LC-MS/MS). All animals were euthanized under CO2 anesthesia after collecting the PK samples at the last time point. The plasma concentration was processed using the non-compartmental model of WinNonlin™ Version 6.3 (Pharsight, Mountain View, CA) pharmacokinetic software, and the pharmacokinetic parameters were calculated using the linear logarithmic trapezoidal method, and the experimental results are shown in Table 4.

Series [6] deals with human colon cancer HCT116 cells subcutaneous xenograft tumor. The series can be described thus: In vivo pharmacodynamic study, subcutaneous xenograft tumor model of human colon cancer HCT116 cells. The following applies: tumor volume on day 22 after dosing. Details: species or system BALB/c Nude mouse. Here is the method: In this experiment, human colon cancer HCT116 cells were subcutaneously transplanted into BALB/c Nude mouse model to evaluate the antitumor effect of the test compound in vivo.
HCT116 cell culture: 10% fetal calf serum was added to McCoy's 5A medium and cultured in 37° C. 5% CO2 cell incubator. When the cell saturation reached 80% to 90% and the number reached the requirement, cells were collected, counted and inoculated subcutaneously into BALB/c Nude mice (female, 6 to 7 weeks old)
When the tumors grew to a certain size, the animals with tumor volumes that were too large, too small, or with irregular tumor shapes were eliminated, and animals with tumor volumes ranging from 103.12 to 174.35 mm^3 were selected. According to the tumor volume, the animals were divided into 6 groups by random block method, and each group was composed of 6 mice wherein the average volume of the tumor was about 147.12 mm^3 , and the experimental grouping and dosing regimen were shown in Table 5 below. The health status and death of the animals were monitored every day. Routine inspections included observation of tumor growth and the effects of drug treatment on the daily behavior of the animals, such as behavioral activities, food and water intake, body weight changes (measured twice a week), tumor size (tumor volume was measured twice a week), appearance signs or other abnormal conditions.
The formula for calculating tumor volume (TV) was: ½×a×b^2, where a and b were the measured length and width of the tumor, respectively. The formula for calculating the tumor inhibition rate TGI (%) was: TGI (%)=[1−(average tumor volume at the end of administration of a certain treatment group−average tumor volume at the beginning of administration of this treatment group)/(average tumor volume at the end of treatment of the solvent control group−average tumor volume at the beginning of treatment in solvent control group)]×100%.
In this study, the experimental data were expressed as Mean±SEM. Statistical analysis was based on the data of RTV at the end of the experiment using IBM SPSS Statistics software. The comparison between two groups was analyzed by T test, and the comparison between three or more groups was analyzed by one-way ANOVA. If the variances were homogeneous (the F value had no significant difference), the Tukey's method was used for analysis. If the variances were not homogeneous (the F value had significant differences), and the Games-Howell method was used for testing. p<0.05 was considered as a significant difference.

Read-outs that look alike come from different tables or passages of the source.

Sequence of PLK2 (Q9NYY3 whole entry): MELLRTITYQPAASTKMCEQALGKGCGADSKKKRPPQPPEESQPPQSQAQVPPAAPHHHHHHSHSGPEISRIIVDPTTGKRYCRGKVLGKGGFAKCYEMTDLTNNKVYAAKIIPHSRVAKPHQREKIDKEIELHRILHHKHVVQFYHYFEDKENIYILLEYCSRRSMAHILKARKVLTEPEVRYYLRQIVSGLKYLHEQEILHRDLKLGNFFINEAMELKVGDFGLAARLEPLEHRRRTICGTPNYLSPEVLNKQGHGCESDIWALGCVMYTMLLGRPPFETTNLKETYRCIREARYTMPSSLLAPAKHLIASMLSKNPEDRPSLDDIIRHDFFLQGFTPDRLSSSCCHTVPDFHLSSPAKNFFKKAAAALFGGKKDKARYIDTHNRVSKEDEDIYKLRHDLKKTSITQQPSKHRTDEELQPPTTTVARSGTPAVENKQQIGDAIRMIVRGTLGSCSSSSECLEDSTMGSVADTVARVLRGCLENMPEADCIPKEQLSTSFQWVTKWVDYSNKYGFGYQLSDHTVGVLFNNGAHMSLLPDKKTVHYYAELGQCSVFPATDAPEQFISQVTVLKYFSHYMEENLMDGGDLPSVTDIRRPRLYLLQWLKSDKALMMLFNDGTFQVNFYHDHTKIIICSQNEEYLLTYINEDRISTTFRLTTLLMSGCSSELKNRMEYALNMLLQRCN
Sequence of PLK3 (Q9H4B4 whole entry): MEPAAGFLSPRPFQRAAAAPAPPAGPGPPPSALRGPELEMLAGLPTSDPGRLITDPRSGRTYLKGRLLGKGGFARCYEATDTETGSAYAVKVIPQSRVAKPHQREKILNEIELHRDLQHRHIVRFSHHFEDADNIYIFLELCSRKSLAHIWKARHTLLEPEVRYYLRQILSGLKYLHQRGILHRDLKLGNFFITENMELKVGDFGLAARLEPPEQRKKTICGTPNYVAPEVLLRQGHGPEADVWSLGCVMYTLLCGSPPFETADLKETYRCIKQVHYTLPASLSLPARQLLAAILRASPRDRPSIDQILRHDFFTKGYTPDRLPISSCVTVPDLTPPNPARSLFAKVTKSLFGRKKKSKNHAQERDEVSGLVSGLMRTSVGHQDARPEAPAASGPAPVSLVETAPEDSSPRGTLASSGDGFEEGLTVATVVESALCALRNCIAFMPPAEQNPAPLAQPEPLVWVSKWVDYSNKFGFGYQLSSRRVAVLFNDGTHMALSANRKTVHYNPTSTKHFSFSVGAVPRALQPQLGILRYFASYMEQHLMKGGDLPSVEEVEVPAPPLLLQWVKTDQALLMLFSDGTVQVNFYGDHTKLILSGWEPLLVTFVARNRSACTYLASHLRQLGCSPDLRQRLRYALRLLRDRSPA

Regarding `CSc1sc(C(N)=O)c2c1-c1nc(Nc3cc(N4CCN(C)CC4)ccc3OC(F)(F)F)ncc1CC2` [Compound 1], the IC50 in series [1] was over 10 µM; in series [2] it was over 10 µM; in series [3] it was over 10 µM; in series [4], 0.027 µM. Further, the Vd in series [5] (IV, 0.5 mg/kg, read-out: Apparent volume of distribution Vdss) is 3.37 L/kg. Also, the AUC(0-t) in series [5] (IV, 0.5 mg/kg) was 0.41 µM·h; in series [5] (PO, 2.0 mg/kg), 1.05 µM·h. The clearance in series [5] (IV, 0.5 mg/kg, read-out: Clearance CL) was determined as 37.8 mL/min/kg. For the same compound, the half-life in series [5] (IV, 0.5 mg/kg, read-out: Half-life T½ (converted)) is 1.47 h. The Cmax in series [5] (PO, 2.0 mg/kg, read-out: Peak concentration Cmax) was found to be 386 nM. Moreover, the Tmax in series [5] (PO, 2.0 mg/kg, read-out: Peak time Tmax) is 0.75 h. For the same compound, in series [5] (PO 2.0 mg/kg vs IV 0.5 mg/kg, read-out: Bioavailability F), the bioavailability was 66.4%. For the same compound, the TGI was 72.9% in series [6] (30 mg/kg PO QD (5 days on, 2 days off)) and 87.3% in series [6] (45 mg/kg PO QD (5 days on, 2 days off)).

For the origin of these results see patent publication US20240140962A1, “5,6-DIHYDROTHIENO[3,4-H]QUINAZOLINE COMPOUND” (MEDSHINE DISCOVERY INC., priority 2021, published 2024).
